This is an account of results in ChEMBL document CHEMBL2073927, “ABCG2 transports sulfated conjugates of steroids and xenobiotics” (J Biol Chem, 2003).

Where a name gives a salt, the structure may show the parent alone.

The target of data set [1] is T1, Broad substrate specificity ATP-binding cassette transporter ABCG2 (Homo sapiens, UniProt Q9UNQ0).
T1 sequence (Q9UNQ0 whole entry): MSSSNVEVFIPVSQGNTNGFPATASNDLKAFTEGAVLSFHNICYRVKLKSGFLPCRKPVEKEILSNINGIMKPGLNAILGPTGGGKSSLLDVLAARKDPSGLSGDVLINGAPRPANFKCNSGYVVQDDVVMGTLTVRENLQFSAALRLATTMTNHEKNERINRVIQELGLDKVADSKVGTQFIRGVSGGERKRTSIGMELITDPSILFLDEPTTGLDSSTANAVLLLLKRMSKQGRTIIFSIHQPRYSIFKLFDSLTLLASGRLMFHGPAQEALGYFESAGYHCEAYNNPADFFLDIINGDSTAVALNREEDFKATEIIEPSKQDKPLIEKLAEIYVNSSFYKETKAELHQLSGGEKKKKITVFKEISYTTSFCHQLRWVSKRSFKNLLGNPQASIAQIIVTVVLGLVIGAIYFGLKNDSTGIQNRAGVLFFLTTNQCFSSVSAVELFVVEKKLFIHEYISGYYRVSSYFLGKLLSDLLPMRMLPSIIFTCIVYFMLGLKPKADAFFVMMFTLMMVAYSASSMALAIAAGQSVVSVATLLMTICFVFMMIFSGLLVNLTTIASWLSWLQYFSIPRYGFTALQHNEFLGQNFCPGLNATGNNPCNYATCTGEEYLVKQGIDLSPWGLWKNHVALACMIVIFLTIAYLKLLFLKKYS
Briefly: (§1) TP_TRANSPORTER: uptake (vesicle) in membrane vesicles from ABCG2-expressing P388 cells. Particulars: mouse. Format: functional, cell membranes.

Data set [2] deals with T2, ABCG2 (Homo sapiens, UniProt Q9UNQ0).
T2 sequence (Q9UNQ0 whole entry): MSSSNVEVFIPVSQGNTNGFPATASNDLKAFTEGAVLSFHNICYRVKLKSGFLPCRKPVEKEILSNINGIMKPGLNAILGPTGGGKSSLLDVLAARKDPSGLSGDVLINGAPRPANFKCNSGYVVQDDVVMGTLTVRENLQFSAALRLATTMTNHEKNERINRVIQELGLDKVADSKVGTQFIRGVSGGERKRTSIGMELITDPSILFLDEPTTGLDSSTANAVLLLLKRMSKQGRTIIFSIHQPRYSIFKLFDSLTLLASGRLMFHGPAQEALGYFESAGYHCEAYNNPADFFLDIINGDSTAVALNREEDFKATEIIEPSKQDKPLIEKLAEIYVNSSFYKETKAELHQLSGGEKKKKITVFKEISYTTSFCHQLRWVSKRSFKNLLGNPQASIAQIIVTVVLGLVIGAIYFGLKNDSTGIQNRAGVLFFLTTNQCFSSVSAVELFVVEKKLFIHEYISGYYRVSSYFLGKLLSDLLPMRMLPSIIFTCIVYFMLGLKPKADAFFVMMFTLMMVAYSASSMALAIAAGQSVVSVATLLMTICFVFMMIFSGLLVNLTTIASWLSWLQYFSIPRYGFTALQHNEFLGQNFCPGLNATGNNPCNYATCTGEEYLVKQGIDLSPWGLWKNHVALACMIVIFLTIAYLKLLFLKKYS
Briefly: TP_TRANSPORTER: inhibition of E1S uptake by 2.4-dinitrophenyl-S-glutathione at a concentration of 80uM in membrane vesicles from ABCG2-expressing P388 cells. The format is functional, cell membranes, Membrane vesicle. Also noted: scale not given: the % may be the effect or the level left. Conditions: mouse, probe E1S, read-out: Activity.

Data set [3] concerns the target T2, ABCG2. Briefly: TP_TRANSPORTER: inhibition of E1S uptake by 4-Methylumbelliferone glucuronide at a concentration of 500uM in membrane vesicles from ABCG2-expressing P388 cells. The format is functional, cell membranes, Membrane vesicle. Details: scale not given: the % may be the effect or the level left. Particulars: mouse, probe E1S, read-out: Activity.
Data set [4] deals with T2, ABCG2. Briefly: TP_TRANSPORTER: inhibition of E1S uptake by Doxorubicin at a concentration of 1000uM in membrane vesicles from ABCG2-expressing P388 cells. The format is functional, cell membranes, Membrane vesicle. Particulars: mouse, probe E1S, read-out: Activity. Details: scale not given: the % may be the effect or the level left.
For data set [5], the target named is T1, Broad substrate specificity ATP-binding cassette transporter ABCG2. As to the kind of experiment: TP_TRANSPORTER: inhibition of E1S uptake by 6-hydroxy-5,7-dimetyl-2-metylamino-4-(3-pyridylmethyl) benzothiazole glucronid at a concentration of 250uM in membrane vesicles from ABCG2-expressing P388 cells. Format: functional, cell membranes, Membrane vesicle. Also noted: scale not given: the % may be the effect or the level left. Conditions: mouse, p388, 250 µM.

Data set [6] has as its target T2, ABCG2. Briefly: TP_TRANSPORTER: inhibition of E1S uptake by Estrone at a concentration of 200uM in membrane vesicles from ABCG2-expressing P388 cells. Also noted: scale not given: the % may be the effect or the level left. Particulars: mouse, probe E1S, read-out: Activity. The format is functional, cell membranes, Membrane vesicle.
Data set [7] deals with T2, ABCG2. Briefly: TP_TRANSPORTER: inhibition of E1S uptake by Pravastatin at a concentration of 200uM in membrane vesicles from ABCG2-expressing P388 cells. The format is functional, cell membranes, Membrane vesicle. Details: scale not given: the % may be the effect or the level left. Particulars: mouse, probe E1S, read-out: Activity.
Substrate in data set [8]: Cc1cc(=O)oc2cc(OS(=O)(=O)O)ccc12
As to the kind of experiment: TP_TRANSPORTER: uptake (vesicle) in membrane vesicle from ABCG2-expressing mouse lymphoma(P388)cells. The format is functional, cell membranes.

Substrate in data set [9]: C[C@]12CC[C@@H]3c4ccc(OS(=O)(=O)O)cc4CC[C@H]3[C@@H]1CCC2=O
Described as §1. The format is functional, cell membranes.

Substrate in data set [10]: CNc1nc2c(Cc3cccnc3)c(C)c(OS(=O)(=O)O)c(C)c2s1
The data set is described as §1. The format is functional, cell membranes.

Take `Cc1cc(=O)oc2cc(OS(=O)(=O)O)ccc12`: in data set [1], the Activity entry is “substrate []”.

`N[C@@H](CCC(=O)N[C@H](CSc1ccc([N+](=O)[O-])cc1[N+](=O)[O-])C(=O)NCC(=O)O)C(=O)O`: the Activity result in [1] was “substrate []”. The activity at 80 µM at ABCG2 [2] stood at 78%.

As for `O=C(O)[C@H]1O[C@@H](OCc2cc(=O)oc3cc(O)ccc23)[C@H](O)[C@@H](O)[C@@H]1O`, the Activity entry in data set [1] was “substrate []”. In addition, the activity at 500 µM on ABCG2 [3] was found to be 84%.

With `COc1cccc2c1C(=O)c1c(O)c3c(c(O)c1C2=O)C[C@@](O)(C(=O)CO)C[C@@H]3O[C@H]1C[C@H](N)[C@H](O)[C@H](C)O1` [DOXORUBICIN], on ABCG2 [4], the activity at 1000 µM came to 72%.

As to `CNc1nc2c(Cc3cccnc3)c(C)c(O[C@@H]3O[C@H](C(=O)O)[C@@H](O)[C@H](O)[C@H]3O)c(C)c2s1` [E3040 GLUCURONIDE], the Activity in data set [5] is 76%; in [1], “substrate []”.

On to `CNc1nc2c(Cc3cccnc3)c(C)c(OS(=O)(=O)O)c(C)c2s1` [E3040 SULFATE], for which the Activity result in data set [1] was “substrate []”.

`C[C@]12CC[C@@H]3c4ccc(O)cc4CC[C@H]3[C@@H]1CC[C@@H]2O[C@@H]1O[C@H](C(=O)O)[C@@H](O)[C@H](O)[C@H]1O` [ESTRADIOL 17B GLUCURONIDE]: the Activity entry in data set [1] is “substrate []”.

On to `C[C@]12CC[C@@H]3c4ccc(O)cc4CC[C@H]3[C@@H]1CCC2=O` [ESTRONE], for which the activity at 200 µM at ABCG2 [6] was 56%.

Regarding `CN(Cc1cnc2nc(N)nc(N)c2n1)c1ccc(C(=O)N[C@@H](CCC(=O)O)C(=O)O)cc1` [METHOTREXATE], the Activity result in data set [1] was “substrate []”.

Regarding `C[C@]12CC[C@H](OS(=O)(=O)O)CC1=CC[C@@H]1[C@@H]2CC[C@]2(C)C(=O)CC[C@@H]12` [PRASTERONE SULFURIC ACID], the Activity entry in [1] was “substrate []”.

`CC[C@H](C)C(=O)O[C@H]1C[C@H](O)C=C2C=C[C@H](C)[C@H](CC[C@@H](O)C[C@@H](O)CC(=O)O)[C@H]21` [PRAVASTATIN]: at ABCG2 [7], the activity at 200 µM amounted to 76%.

B1: Broad substrate specificity ATP-binding cassette transporter ABCG2 (Homo sapiens) (protein)
chain: MSSSNVEVFIPVSQGNTNGFPATASNDLKAFTEGAVLSFHNICYRVKLKSGFLPCRKPVEKEILSNINGIMKPGLNAILGPTGGGKSSLLDVLAARKDPSGLSGDVLINGAPRPANFKCNSGYVVQDDVVMGTLTVRENLQFSAALRLATTMTNHEKNERINRVIQELGLDKVADSKVGTQFIRGVSGGERKRTSIGMELITDPSILFLDEPTTGLDSSTANAVLLLLKRMSKQGRTIIFSIHQPRYSIFKLFDSLTLLASGRLMFHGPAQEALGYFESAGYHCEAYNNPADFFLDIINGDSTAVALNREEDFKATEIIEPSKQDKPLIEKLAEIYVNSSFYKETKAELHQLSGGEKKKKITVFKEISYTTSFCHQLRWVSKRSFKNLLGNPQASIAQIIVTVVLGLVIGAIYFGLKNDSTGIQNRAGVLFFLTTNQCFSSVSAVELFVVEKKLFIHEYISGYYRVSSYFLGKLLSDLLPMRMLPSIIFTCIVYFMLGLKPKADAFFVMMFTLMMVAYSASSMALAIAAGQSVVSVATLLMTICFVFMMIFSGLLVNLTTIASWLSWLQYFSIPRYGFTALQHNEFLGQNFCPGLNATGNNPCNYATCTGEEYLVKQGIDLSPWGLWKNHVALACMIVIFLTIAYLKLLFLKKYS
Regarding B1, the results for the Km in data set [8], in data set [9] and in [10] were 13 µM, 17 µM and 27 µM, respectively.

The term Km denotes the concentration of substrate that gives half-maximal velocity.
